Experimental data taken from patent publication EP4748844A1, “AZETIDINE COMPOUND AND MEDICAL USE THEREOF” (SHANGHAI INSTITUTE OF MATERIA MEDICA, CHINESE ACADEMY OF …, priority 2023, dated 2025).

Experiments:
[1] = system: ISG gene expression induced by MSA-2 in human THP1-Blue-ISG cells; assay: Inhibition of MSA-2-induced ISG gene expression in human THP1-Blue-ISG cells (Quanti-Blue, OD650); format: cell-based; settings: STING agonist MSA-2 10 µM, incubated for 24 hours
Procedure: (§1) 10 µL of compound diluted with PBS/physiological saline was added to each well of a 96 well cell culture plate. The STING agonist was MSA-2, which was added to the counted cell suspension at a final concentration of 10 µM. For the control group without compounds, 10 µL of PBS/physiological saline containing 2% DMSO was added. 3 replicate wells were set in each group. THP1-Blue-ISG cells were counted and adjusted to a cell concentration of 4× 10^5/mL, and 190 µL of cells containing STING agonist were added to each well for incubation. Therefore, the final volume of each test well was 200 µL, the content of DMSO was 0.1%, and the final concentration of the compound tested was 10/3.3/1.1/0.4/0.13/0.04/0.013/0.004 µM, incubated for 24 hours. In addition, 190 µL of cells without STING agonist and 10 µL of physiological saline containing 2% DMSO were added to the blank group. 3 replicate wells were set in each group.
After 24 hours, 20 µL of culture medium was taken from each well and transferred to a new 96 well plate. 180 µL of chromogenic solution Quanti-Blue was added. The plate was placed in a 37 °C incubator. After 2 hours, the OD650 values were measured.
Result analysis: Inhibition rate (%) = (Con(OD650)−Treated(OD650))/Con(OD650) × 100% [formula]
(§2) The IC50 calculation of inhibitors was implemented using the Graphpad Prism 8 software's calculation method log (inhibitor) vs. response - Variable slope (four parameters), with a constrain interval of 0-100.

[2] = system: ISG gene expression induced by MSA-2 in human THP1-Dual cells; assay: Inhibition of MSA-2-induced ISG gene expression in human THP1-Dual cells (QUANTI-Luc); format: cell-based; settings: STING agonist MSA-2 10 µM, incubated for 24 hours
Procedure: as §1, with “THP1-Dual” for “THP1-Blue-ISG”, “4×10^5/mL,” for “4× 10^5/mL,”
After 24 hours, 20 µL of culture medium for THP1-Dual cells was taken from each well and transferred to a new 96 well plate with photopermeable bottom. 50 µL of the luciferase detection reagent QUANTI-Luc™ was added, and the […] was immediately measured (avoid light). Result analysis:Inhibition rate (%) = (Con(Lum)−Treated(Lum))/Con(Lum) × 100% [formula]
as §2

[3] = system: STING agonist (MSA-2) stimulation; assay: In vivo anti-inflammatory effect of oral administration on STING agonist (MSA-2) stimulation; design: species or system C57BL6 female mice; settings: I-77 20mpk
Procedure: 6-8 week C57BL6 female mice, purchased from Shanghai Jihui Experimental Animal Breeding Co., Ltd. Compound preparation method: 2 mg of I-77 powder was taken, 12 µL of PEG400 was added thereto and ultrasonically dissolved, and then 8 µL of Tween 80 was added and ultrasonically mixed to prepare a 100 mg/mL stock solution.
Experimental grouping: The control group was administered vehicle solvent; The model group was administered MSA-2 (10mpk, dissolved in 40% PEG400); The treatment group (I-77) was administered MSA-2 and I-77 (20mpk, PO). A final concentration of […] of I-77 solution was prepared by dilution with double distilled water, and 200 µL of the solution was taken and administered intragastrically into the mice in treatment group; The control group and MSA-2 group were administered intragastrically with 200 µL of vehicle solvent diluted 10 times. […] After high-speed centrifugation of blood samples, the plasma was taken and diluted by 2 times, and the levels of CXCL10 and IL6 in the plasma were detected using the Lianke ELISA kit. RNA was extracted from heart and kidney samples, and reversed to cDNA, and inflammation related cytokines (ISG15, ISG56, IL6, and IP10) in tissues were detected using qPCR technology. […]

[4] = system: STING-V154M mutant autoimmune mouse disease model; assay: Inflammatory inhibitory effect of oral administration in STING-V154M mutant autoimmune mouse disease model; format: in vivo; settings: I-77 20mpk
Procedure: The model mice were purchased from GEMPHARMATECH CO., LTD., and the wild-type C57/BL6 mice were also purchased from GEMPHARMATECH CO., LTD... Compound preparation method: 2 mg of I-77 powder was taken, 12 µL of PEG400 was added thereto and ultrasonically dissolved, and then 8 µL of Tween 80 was added and ultrasonically mixed to prepare a 100 mg/mL stock solution.
Experimental grouping: Wild type mice control group (Control) was administered vehicle solvent; The model mice group (Model) was administered solvent; The treatment group (I-77) was administered I-77 (20mpk, PO) to the model mice. The mice in the I-77 treatment group were intragastrically administered 200 µL of I-77 solution at a final concentration of […] which was prepared by dilution with double-distilled water; The same dose of solvent was administered to the remaining groups until the mortality rate of the model group exceeded 50%. The kidneys and heart were collected from the experimental endpoint samples. RNA extraction was performed on heart and kidneys samples, and the RNA was reversed to cDNA. Changes in gene expression of inflammation related cytokines (ISG15, CCL5, IP10, ISG56) in the tissues were detected using qPCR technology. Statistical method: One way ANOVA, *P<0.05, **P<0.01, ***P<0.001, ***P<0.0001.

Compound: CC1(C)C(=O)N(Cc2ccsc2)c2cc(C(=O)Nc3c[nH]c4ccccc34)ccc21 [Example I-77, N-(1H-indol-3-yl)-3,3-dimethyl-2-oxo-1-(thien-3-ylmethyl)indolin-6-carboxamide]
- IC50 [1]: 162 nM
- IC50 [2]: 0.63 nM
- levels of IL6 and IP10 in plasma induced by MSA-2 injection ([3]; 1 hour before MSA-2 (10mpk), plasma ELISA after 4 hours, Figure 4): significantly reduced
- inflammatory response of the heart and kidneys induced by MSA-2 stimulation ([3]; qPCR of ISG15, ISG56, IL6, IP10 in tissues, Figures 5, 6): inhibited the inflammatory response
- cardiac and renal inflammatory responses of STING V154M mutant model mice ([4]; qPCR of ISG15, CCL5, IP10, ISG56 in heart and kidneys, Figures 8, 9): inhibit the cardiac and renal inflammatory responses
- survival of STING V154M mutant model mice ([4]; until mortality of the model group exceeded 50%, Figure 7): significantly prolong the survival
